For 20 compounds, EC50 results are on record in patent publication US20240131028A1, “CHEMOVACCINATION AGAINST PLASMODIUM INFECTION WITH SELECTIVE PLASMEPSIN X INHIBITORS” (Merck Sharp & Dohme LLC, priority 2021, published 2024).

One assay has as its system ring stage parasites (Pf). The assay can be described thus: Parasite lactate dehydrogenase (LDH) growth assay (Parasite Assay, PfLDH Assay). Type of assay: cell-based, P. falciparum. The conditions noted are these: Plasmodium falciparum, 72 h, Table 3; 72 hours growth, LDH readout; read-out: EC50. The protocol:
The parasite stock was maintained at 4% haematocrit in RPMI-Hepes media buffered with sodium bicarbonate and supplemented with 5% heat inactivated human serum and 0.5% albumax. […] On the day of assay set up, a blood smear of the parasite culture was Giemsa stained and counted. The parasitemia was adjusted to 0.7% rings and the haematocrit was diluted to 2% in RPMI-Hepes media buffered with sodium bicarbonate and supplemented with 5% heat inactivated human serum and 0.5% albumax. 30 μl of diluted parasites are then added into 10 μl of media+compound in pre-prepared Greiner TC assay plates. Parasite assay plates were placed in gassed humidified boxes in single layer and allowed to incubate at 37° C. for 72 hours. After 72 hours growth, assay plates were sealed with parafilm and frozen flat, in single file at −80° C. overnight. On the following day, assay plates were allowed to thaw at room temperature for 4 hours to which an LDH assay was performed to measure parasite growth.
As a reminder, the EC50 is the concentration giving half of the maximal effect. `CCC1(CC)CC(=O)N([C@H](c2cccnc2)[C@H]2C(C)[C@@H]2C(=O)N[C@H]2CC(C)(C)Oc3ccccc32)C(=N)N1` (some centres unmarked) [Example 56B]: the EC50 stood at 0.7 nM.
On the same count and under the same terms, to `COCC[C@H]([C@H]1C[C@@H]1C(=O)N[C@@H]1CC(C)(C)Oc2ccc(C(F)(F)F)cc21)N1C(=N)NC(C)(C)CC1=O` [Example 110A] belongs 21 nM; to `CC[C@]1(C)CC(=O)N([C@H](CCOC)[C@H]2C[C@@H]2C(=O)N[C@@H]2c3ccccc3OC(C)(C)[C@H]2O)C(=N)N1` [Example 61], 6.9 nM; to `CCC1(CC)CC(=O)N(C[C@H]2C[C@@H]2C(=O)N[C@H]2c3ccccc3C[C@@H]2O)C(=N)N1` [Example 6A], 188 nM.
With `CC1(C)CC(=O)N([C@@H](c2cncc(Cl)c2)[C@H]2C[C@@H]2C(=O)N[C@H]2C[C@H](C(F)(F)F)Oc3ccccc32)C(=N)N1` [Example 60B], the half-maximal effective concentration (EC50) was 100 nM.
For the compound `CC1(C)CC(=O)N([C@@H](c2ccc(C#N)cc2)[C@H]2C[C@@H]2C(=O)N[C@H]2CC(C)(C)Oc3ccccc32)C(=N)N1` [Example 45B], the EC50 was 220 nM.
Same read-out and setting: to `CCC1(CC)CC(=O)N(C[C@H]2C[C@@H]2C(=O)N[C@@H]2C[C@@H](C(F)(F)F)Oc3ccccc32)C(=N)N1` [Example 8B] belongs 5.3 nM; to `CCC1(C)C[C@H](NC(=O)[C@H]2C[C@@H]2CN2C(=N)NC(C)(C)CC2=O)c2ccccc2O1` (some centres unmarked) [Example 78], 300 nM; to `COCC[C@H]([C@H]1C[C@@H]1C(=O)N[C@@H]1C[C@@H](C(F)(F)F)Oc2ccccc21)N1C(=N)N[C@](C)(C(C)C)CC1=O` [Example 21B], 1 nM.
Turning to `CC1(C)CC(=O)N([C@H](c2cccnc2)[C@H]2C[C@@H]2C(=O)N[C@@H]2c3ccccc3OC(C)(C)[C@H]2O)C(=N)N1` [Example 27], the EC50 amounted to 78 nM.
With `CCC1(CC)CC(=O)N([C@H](CCOC)[C@H]2C[C@@H]2C(=O)N[C@H]2CC(C)(C)Oc3ccccc32)C(=N)N1` [Example 1A], the EC50 was found to be 1 nM.
Still for that read-out and setting: for `COCC[C@H]([C@H]1C[C@@H]1C(=O)N[C@@H]1CC(C)(C)Oc2cc(C)c(C)cc21)N1C(=N)NC(C)(C)CC1=O` [Example 138B] the value was 18 nM; for `COCC[C@H]([C@H]1C[C@@H]1C(=O)N[C@H]1CC(C)(C)Oc2ccc(Cl)cc21)N1C(=N)NC(C)(C)CC1=O` [Example 101], 2.9 nM.

The assay is the same for the next values; noted with them: Plasmodium falciparum, 72 h, Table 4; 72 hours growth, LDH readout; read-out: EC50 (Table 4).
As to `CCC1(CC)CC(=O)N([C@H](CCOC)[C@H]2C[C@@H]2C(=O)N[C@H]2CC(C)(C)Oc3ccc(Cl)cc32)C(=N)N1` [Example 146], the EC50 is 1.1 nM.

The assay is the same for the next values; noted with them: Table 3; 72 hours growth, LDH readout; read-out: EC50.
On to `CC[C@]1(C)CC(=O)N(C(c2cncc(F)c2)[C@H]2C[C@@H]2C(=O)N[C@@H]2c3ccccc3OC(C)(C)C2(C)O)C(=N)N1` (single isomer, unassigned) [Example 103A], for which the EC50 was 29 nM.
As for `CCC1(CC)CC(=O)N(C[C@H]2C(C)[C@@H]2C(=O)N[C@H]2c3ccccc3CC2(C)O)C(=N)N1` (single isomer, unassigned) [Example 29A], the EC50 stood at 203 nM.
The same measure, in the same setting: for `CCC1(C)CC(NC(=O)[C@H]2C[C@@H]2[C@@H](CCOC)N2C(=N)NC(C)(C)CC2=O)c2ccccc2O1` (single isomer, unassigned) [Example 75B] the value was 7.5 nM; for `CC1(C)CC(=O)N([C@H](c2cccnc2)[C@H]2C[C@@H]2C(=O)NC2CC(C)(C)Oc3ccc(F)cc32)C(=N)N1` (single isomer, unassigned) [Example 98A], 0.9 nM.
Regarding `CC1(C)CC(=O)N([C@H](c2cccnc2)[C@H]2C[C@@H]2C(=O)NC2CC(C)(C)Oc3ccc(F)cc32)C(=N)N1` (single isomer, unassigned) [Example 98B], the EC50 was 2.2 nM.
`CCC1(C)CC(NC(=O)[C@H]2C[C@@H]2[C@@H](CCOC)N2C(=N)NC(C)(C)CC2=O)c2ccccc2O1` (single isomer, unassigned) [Example 75D]: the EC50 was 7 nM.
